Measurements: patent US20260373497A1, “MOLECULAR MACHINES STIMULATE INTERCELLULAR CALCIUM WAVES AND CAUSE MUSCLE CONTRACTION” (William Marsh Rice University, priority 2022, published 2026)
“Also recorded” adds a separate entry of the source.

Experiments:
N2A cells = assay: MM-induced calcium responses in N2A cells; format: cell-based; settings: 400 nm, 250 ms, 3.2×10^2 W cm^−2
Description: FIGS. 11A & 11B—ICW in N2A cells after stimulation with MM 1 and light. (a) Confocal images of N2A cells treated with MM 1 (blue) and calcium tracking dye (Fluo-4; green). The white circle in the top-left image depicts the area to which stimulus was delivered. The scale bar is 50 μm and applies to all images. (b) Fluo-4 fluorescence traces of N2A cells treated with MM 1 and stimulated with 250 ms pulse of 400 nm light delivered to a 5 μm diameter circular region of interest at 3.2×10^2 W cm^−2 stimulation power.
Cell Culture and Preparation of Cells for Microscopy: HEK293 cells were chosen as the principal model system due to their prevalence in electrophysiological interrogation. […] HEK293 cells, HeLa cells, and N2A cells were cultured in DMEM (10% FBS, 1% penicillin/streptomycin) and passaged at <90% confluence. […]
In Vitro Imaging and Stimulation: Cells were loaded in a Nikon A1-Rsi confocal system mounted on a widefield Ti-E fluorescence microscope. […] Laser stimulation for in vitro experiments was performed with a 400 nm photodiode laser (Coherent OBIS™ LX SF) operating in a fluorescence-recovery-after-photobleaching (FRAP) experiment mode, delivering up to 6.4×10^2 W cm^−2 at sample level. […] Fluo-4 fluorescence was collected for 30 s before and 2 min after stimulation. […]

HEK293 cells = assay: Assessment of stimulation toxicity (apoptosis, necrosis, PI uptake); format: cell-based
Description: Assessment of Stimulation Toxicity: The purpose was to use MM to interact with cell signaling. However, several previous studies by the group have explored the same or similar molecules for inducing cell permeabilization and death (Santos et al., 2022; Alaya-Orozco et al., 2020; Gunasekera et al., 2020). These studies used minutes-long light doses rather than the millisecond-scale doses employed in this work. Nevertheless, assessing the effects of MM stimulation on cell viability remains imperative.
Potentially toxic effects of MM stimulation on cells were assessed in several ways. First, qualitative analysis of stimulated cells can be used to assess toxicity. For these experiments, HEK293 cells were treated with MM 1 and prepared as was typical for stimulation experiments.
Second, once a suitable window of stimulation power had been identified, the effects of stimulation on cells were compared to healthy cells and several positive controls representing mechanisms of cell death. For these experiments, cells were loaded with Fluo-4, CellMask cell membrane labeling dye, and MM 1 and were imaged in the presence of cell-impermeant viability dye propidium iodide (PI; 1 μg mL^−1). The onset of apoptotic cell death in imaged colonies was confirmed by the observation of pyknosis (cell shrinkage) (Hajnoczky et al., 2003), the uptake of small amounts of PI, and the enhanced fluorescence of Fluo-4 in the colony (FIG. 8A).
Finally, to account for potential aftereffects of stimulation, isolated HEK293 colonies were grew in a grid pattern by photolithographically patterning polydimethylsiloxane onto Ibidi imaging dishes. Colonies were seeded with 25,000 cells cm^−2. Two days after seeding, cells were treated with MM 1 and Fluo-4 using typical protocols (see Example 6), and 10 selected cells were stimulated in selected colonies. After 24 h, these colonies were imaged again in the presence of 1 μg mL^−1 PI to observe any effects of MM stimulation on growth, cell stress, or viability.

[1] = test system: primary rat cardiomyocytes; assay: Spiking, beating and contraction of primary cardiomyocytes after MM stimulation; format: cell-based
C2C12 myoblasts = assay: MM-induced calcium release in C2C12 cells (Fluo-4); format: cell-based, mouse; settings: MM 1, 1 s instead of 500 ms

Which “Calcium responses induced by MM 1 actuation” value (N2A cells) does the source give for `CC1Cc2ccc3ccccc3c2C1=C1c2ccccc2Sc2cc(NCCN(C)C)ccc21` (centres unmarked) [MM 1] here?
The value was “also observed”.

What about the “Cell toxicity after typical stimulation” value (HEK293 cells; MM 1 8 μM, 3.2×10^2 W cm^−2 for 250 ms) of the same compound?
The value was “cells recovered from stimulation and showed no signs of apoptosis or necrosis”.

What about the “Cell toxicity at reduced light dose” value (HEK293 cells; MM 1, 3.2×10^2 W cm^−2 for 1 s, 30 min) of the same compound?
The value was “strong calcium responses from cells without observable toxicity; also recorded: the calcium signal has returned to homeostatic levels, and the stimulated cell and surrounding cells display no apparent damage”.

And the “Cell toxicity at high light dose” value (HEK293 cells; MM 1, 6.4×10^2 W cm^−2 for 4 s)?
Its value is “membrane blebbing and calcium accumulation over a 30 min period, indicating cell death; also recorded: membrane blebbing and runaway calcium accumulation; also recorded: the calcium signal has not returned to homeostasis, and membrane blebbing is apparent”.

What about the “PI uptake of stimulated colonies 24 h after stimulation” value (HEK293 cells; MM 1, 10 cells stimulated per colony, 1 μg mL^−1 PI) of the same compound?
The value was “indistinguishable from untreated colonies”.

And the “Necrotic cell death under UV/DAPI-filter LED” value (HEK293 cells; MM 1, 395/25 nm, 166 mW cm^−2, 5 min)?
Its value is “Necrotic cell death was observed”.

What about the “Contraction / beating of cardiomyocytes” value ([1]; 400 nm, 250 ms, 5.1×10^2 W cm^−2) of the same compound?
Its value is “local contraction in the stimulated cell; also recorded: periodic beating in the stimulated cell and surrounding cell”.

What about the “Firing rate of cardiomyocytes” value ([1]; MM 1 + light in presence of U-73 10 μM, P<0.0001) of the same compound?
Its value is ~ 0.8 spikes min^−1 cell^−1.

What about the “Spiking activity of cardiomyocytes” value ([1]; MM 1 + light, absence of extracellular calcium) of the same compound?
The value was “did not exhibit any spiking activity”.

What about the “Firing rate of cardiomyocytes” value ([1]; MM 1 + light, calcium-containing medium) of the same compound?
Its value is 5.1 spikes min^−1 cell^−1.

And the “Calcium release at longer stimulation” value (C2C12 myoblasts)?
The value was “larger calcium release”.
